Reference: ChEMBL document CHEMBL1128812, “Synthesis and porcine pancreatic elastase inhibitory evaluation of 6-(sulfonyl)oxy-and 6-chloropenicillanate sulfone esters and 3-(acyloxy)methyl-6-chloropenam sulfones” (Bioorg Med Chem Lett, 1995)
“And” between values parts separate entries of the source, which are not always exact repeats. Identical values can stand only once.

Target: T1, Chymotrypsin-like elastase family member 2A (Sus scrofa) (UniProt P08419)
T1 sequence (whole entry): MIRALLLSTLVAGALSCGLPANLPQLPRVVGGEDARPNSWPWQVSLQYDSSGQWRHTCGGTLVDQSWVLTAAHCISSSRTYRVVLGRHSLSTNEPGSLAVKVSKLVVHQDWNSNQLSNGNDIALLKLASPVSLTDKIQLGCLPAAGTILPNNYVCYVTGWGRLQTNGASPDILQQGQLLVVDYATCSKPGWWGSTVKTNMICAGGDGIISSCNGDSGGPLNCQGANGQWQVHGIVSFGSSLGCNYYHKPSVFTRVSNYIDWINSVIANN
Experiment: Compound was tested in vitro for its ability to inhibit Pancreatic elastase catalyzed hydrolysis of substrate with 10 min pre-incubation

Q: For `COC(=O)[C@@H]1N2C(=O)[C@@H](Cl)[C@H]2S(=O)(=O)C1(C)C`, which inhibition is on record?
A: 44% and 40%
